# Patent US12383545B1, “Treatment of migraine” (priority 2018, dated 2025)
# Test system: patients with migraine (4 to 14 migraine/probable migraine headache days)
# Experiment: Example 5: randomized double-blind placebo-controlled 12-week dose-regimen study (QD and BID), migraine/probable migraine (MPM) headache days efficacy
# Type: in vivo, human
# Settings: for At Least 50% Reduction in Mean Monthly MPM Headache Days, Non-responders / At Least 50% Reduction in Mean Monthly MPM Headache Days, Odds ratio vs. Placebo / At Least 50% Reduction in Mean Monthly MPM Headache Days, Responders / Change from Baseline in Mean Monthly Acute Medication Use Days, CFB MMRM LS Mean / Change from Baseline in Mean Monthly Acute Medication Use Days, CGP vs. Placebo LSMD / Change from Baseline in Mean Monthly Headache Days, CFB MMRM LS Mean / Change from Baseline in Mean Monthly Headache Days, CGP vs. Placebo LSMD / Change from Baseline in Mean Monthly MPM Headache Days, CFB MMRM LS Mean / Change from Baseline in Mean Monthly MPM Headache Days, CGP vs. Placebo LSMD: across the 12-Week Treatment Period, mITT Population; for Non-responders (at least 100% reduction in mean monthly MPM headache days not met), (%) / Non-responders (at least 100% reduction in mean monthly MPM headache days not met), n / Odds ratio vs. Placebo, at least 100% reduction in mean monthly MPM headache days / Responders (at least 100% reduction in mean monthly MPM headache days), (%) / Responders (at least 100% reduction in mean monthly MPM headache days), n: Weeks 1-4, mITT population
# Method: In a multicenter, randomized, double-blind, placebo-controlled, parallel-group study designed to evaluate the efficacy, safety, and tolerability of multiple doses and doses regimens of atogepant for the prevention of migraine. The patients were randomized (2:1:2:1:2:1) to 1 of 6 treatment groups: placebo, atogepant 10 mg QD, atogepant 30 mg QD, atogepant 30 mg BID, atogepant 60 mg QD, and atogepant 60 mg BID.
# This study consisted of a 4-week screening and baseline period and a 12-week double-blind treatment period, which was followed by a 4-week safety follow-up period. Total study duration is 20-weeks.
# To be randomized, eligible patients had to be 18 to 75 years of age (inclusive), have a history of migraine with or without aura for at least 1 year consistent with a diagnosis according to the International Classification of Headache Disorders criteria, 3rd edition, beta version, have experienced 4 to 14 migraine/probable migraine headache days and <15 headache days in the 28-day baseline period. Patients who had clinically significant hematologic, endocrine, cardiovascular, cerebrovascular, pulmonary, renal, hepatic, gastrointestinal, or neurologic disease were excluded from the study.
# A total of 834 patients were randomized to double-blind treatment (ITT population), and 825 patients took at least 1 dose of double-blind IP (safety population). […] The primary efficacy variable was the change from baseline in mean monthly migraine/probable migraine headache days across the 12-week treatment period. The secondary efficacy variables were the change from baseline in mean monthly headache days across the 12-week treatment period, proportion of patients with at least a 50% reduction in mean monthly migraine/probable migraine headache days across the 12-week treatment period, and the change from baseline in mean monthly acute medication use days across the 12-week treatment period.
structure (smiles),measurement,setting,value
C[C@@H]1[C@H](c2c(F)ccc(F)c2F)C[C@H](NC(=O)c2cnc3c(c2)C[C@@]2(C3)C(=O)Nc3ncccc32)C(=O)N1CC(F)(F)F [atogepant],"At Least 50% Reduction in Mean Monthly MPM Headache Days, Non-responders",Atogepant 10 mg QD,39 (42.4) n (%)
same,"At Least 50% Reduction in Mean Monthly MPM Headache Days, Odds ratio vs. Placebo",Atogepant 10 mg QD,1.50
same,"At Least 50% Reduction in Mean Monthly MPM Headache Days, Responders",Atogepant 10 mg QD,53 (57.6) n (%)
same,"Change from Baseline in Mean Monthly Acute Medication Use Days, CFB MMRM LS Mean",Atogepant 10 mg QD,-3.71 days
same,"Change from Baseline in Mean Monthly Acute Medication Use Days, CGP vs. Placebo LSMD",Atogepant 10 mg QD,-1.30 days
same,"Change from Baseline in Mean Monthly Headache Days, CFB MMRM LS Mean",Atogepant 10 mg QD,-4.31 days
same,"Change from Baseline in Mean Monthly Headache Days, CGP vs. Placebo LSMD",Atogepant 10 mg QD,-1.38 days
same,"Change from Baseline in Mean Monthly MPM Headache Days, CFB MMRM LS Mean",Atogepant 10 mg QD,-4.00 days
same,"Change from Baseline in Mean Monthly MPM Headache Days, CGP vs. Placebo LSMD",Atogepant 10 mg QD,-1.15 days
same,"At Least 50% Reduction in Mean Monthly MPM Headache Days, Non-responders",Atogepant 30 mg BID,33 (41.8) n (%)
same,"At Least 50% Reduction in Mean Monthly MPM Headache Days, Odds ratio vs. Placebo",Atogepant 30 mg BID,1.83
same,"At Least 50% Reduction in Mean Monthly MPM Headache Days, Responders",Atogepant 30 mg BID,46 (58.2) n (%)
same,"Change from Baseline in Mean Monthly Acute Medication Use Days, CFB MMRM LS Mean",Atogepant 30 mg BID,-3.77 days
same,"Change from Baseline in Mean Monthly Acute Medication Use Days, CGP vs. Placebo LSMD",Atogepant 30 mg BID,-1.35 days
same,"Change from Baseline in Mean Monthly Headache Days, CFB MMRM LS Mean",Atogepant 30 mg BID,-4.23 days
same,"Change from Baseline in Mean Monthly Headache Days, CGP vs. Placebo LSMD",Atogepant 30 mg BID,-1.30 days
same,"Change from Baseline in Mean Monthly MPM Headache Days, CFB MMRM LS Mean",Atogepant 30 mg BID,-4.23 days
same,"Change from Baseline in Mean Monthly MPM Headache Days, CGP vs. Placebo LSMD",Atogepant 30 mg BID,-1.39 days
same,"At Least 50% Reduction in Mean Monthly MPM Headache Days, Non-responders",Atogepant 30 mg QD,85 (46.7) n (%)
same,"At Least 50% Reduction in Mean Monthly MPM Headache Days, Odds ratio vs. Placebo",Atogepant 30 mg QD,1.46
same,"At Least 50% Reduction in Mean Monthly MPM Headache Days, Responders",Atogepant 30 mg QD,97 (53.3) n (%)
same,"Change from Baseline in Mean Monthly Acute Medication Use Days, CFB MMRM LS Mean",Atogepant 30 mg QD,-3.86 days
same,"Change from Baseline in Mean Monthly Acute Medication Use Days, CGP vs. Placebo LSMD",Atogepant 30 mg QD,-1.44 days
same,"Change from Baseline in Mean Monthly Headache Days, CFB MMRM LS Mean",Atogepant 30 mg QD,-4.17 days
same,"Change from Baseline in Mean Monthly Headache Days, CGP vs. Placebo LSMD",Atogepant 30 mg QD,-1.24 days
same,"Change from Baseline in Mean Monthly MPM Headache Days, CFB MMRM LS Mean",Atogepant 30 mg QD,-3.76 days
same,"Change from Baseline in Mean Monthly MPM Headache Days, CGP vs. Placebo LSMD",Atogepant 30 mg QD,-0.91 days
same,"At Least 50% Reduction in Mean Monthly MPM Headache Days, Non-responders",Atogepant 60 mg BID,33 (37.9) n (%)
same,"At Least 50% Reduction in Mean Monthly MPM Headache Days, Odds ratio vs. Placebo",Atogepant 60 mg BID,2.03
same,"At Least 50% Reduction in Mean Monthly MPM Headache Days, Responders",Atogepant 60 mg BID,54 (62.1) n (%)
same,"Change from Baseline in Mean Monthly Acute Medication Use Days, CFB MMRM LS Mean",Atogepant 60 mg BID,-3.64 days
same,"Change from Baseline in Mean Monthly Acute Medication Use Days, CGP vs. Placebo LSMD",Atogepant 60 mg BID,-1.22 days
same,"Change from Baseline in Mean Monthly Headache Days, CFB MMRM LS Mean",Atogepant 60 mg BID,-4.32 days
same,"Change from Baseline in Mean Monthly Headache Days, CGP vs. Placebo LSMD",Atogepant 60 mg BID,-1.39 days
same,"Change from Baseline in Mean Monthly MPM Headache Days, CFB MMRM LS Mean",Atogepant 60 mg BID,-4.14 days
same,"Change from Baseline in Mean Monthly MPM Headache Days, CGP vs. Placebo LSMD",Atogepant 60 mg BID,-1.29 days
same,"At Least 50% Reduction in Mean Monthly MPM Headache Days, Non-responders",Atogepant 60 mg QD,85 (48.0) n (%)
same,"At Least 50% Reduction in Mean Monthly MPM Headache Days, Odds ratio vs. Placebo",Atogepant 60 mg QD,1.42
same,"At Least 50% Reduction in Mean Monthly MPM Headache Days, Responders",Atogepant 60 mg QD,92 (52.0) n (%)
same,"Change from Baseline in Mean Monthly Acute Medication Use Days, CFB MMRM LS Mean",Atogepant 60 mg QD,-3.53 days
same,"Change from Baseline in Mean Monthly Acute Medication Use Days, CGP vs. Placebo LSMD",Atogepant 60 mg QD,-1.11 days
same,"Change from Baseline in Mean Monthly Headache Days, CFB MMRM LS Mean",Atogepant 60 mg QD,-3.86 days
same,"Change from Baseline in Mean Monthly Headache Days, CGP vs. Placebo LSMD",Atogepant 60 mg QD,-0.94 days
same,"Change from Baseline in Mean Monthly MPM Headache Days, CFB MMRM LS Mean",Atogepant 60 mg QD,-3.55 days
same,"Change from Baseline in Mean Monthly MPM Headache Days, CGP vs. Placebo LSMD",Atogepant 60 mg QD,-0.70 days
same,"Non-responders (at least 100% reduction in mean monthly MPM headache days not met), (%)",Atogepant 10 mg QD (N = 92),(81.5) %
same,"Non-responders (at least 100% reduction in mean monthly MPM headache days not met), n",Atogepant 10 mg QD (N = 92),75
same,"Odds ratio vs. Placebo, at least 100% reduction in mean monthly MPM headache days",Atogepant 10 mg QD (N = 92),6.39
same,"Responders (at least 100% reduction in mean monthly MPM headache days), (%)",Atogepant 10 mg QD (N = 92),(18.5) %
same,"Responders (at least 100% reduction in mean monthly MPM headache days), n",Atogepant 10 mg QD (N = 92),17
same,"Non-responders (at least 100% reduction in mean monthly MPM headache days not met), (%)",Atogepant 30 mg BID (N = 79),(83.5) %
same,"Non-responders (at least 100% reduction in mean monthly MPM headache days not met), n",Atogepant 30 mg BID (N = 79),66
same,"Odds ratio vs. Placebo, at least 100% reduction in mean monthly MPM headache days",Atogepant 30 mg BID (N = 79),5.23
same,"Responders (at least 100% reduction in mean monthly MPM headache days), (%)",Atogepant 30 mg BID (N = 79),(16.5) %
same,"Responders (at least 100% reduction in mean monthly MPM headache days), n",Atogepant 30 mg BID (N = 79),13
same,"Non-responders (at least 100% reduction in mean monthly MPM headache days not met), (%)",Atogepant 30 mg QD (N = 182),(80.2) %
same,"Non-responders (at least 100% reduction in mean monthly MPM headache days not met), n",Atogepant 30 mg QD (N = 182),146
same,"Odds ratio vs. Placebo, at least 100% reduction in mean monthly MPM headache days",Atogepant 30 mg QD (N = 182),7.05
same,"Responders (at least 100% reduction in mean monthly MPM headache days), (%)",Atogepant 30 mg QD (N = 182),(19.8) %
same,"Responders (at least 100% reduction in mean monthly MPM headache days), n",Atogepant 30 mg QD (N = 182),36
